Data set [1] has as its system Human diploid fibroblast BJ. In words: In vitro cytotoxic activity (metabolisation of MTT). Format: cell-based. Conditions: 72 hours, BJ passage 18-22. How it is done: In vitro Cytotoxic Activity (metabolisation of Mtt). MTT ([…]) assay is a standard colorimetric assay for evaluation of cytotoxicity. Mitochondrial dehydrogenase activity converts yellow MTT into violet formazan which is measured by means of spectrometry.
Human diploid fibroblast BJ (passage 18-22) were seeded into 96-well plate (5.000 cells per well). After 6 hours cultivation medium (DMEM with 5 g/l glucose, 2 mM glutamine, 100 U/ml penicillin, 100 mmg/ml streptomycin, 10% fetal calf serum and sodium bicarbonate) was replaced with the cultivation medium containing test compounds in concentration range of 0-200 μM. Highest concentration was adjusted if the solubility of the compound was limiting. Every concentration was tested in pentaplicate. MTT was added to the cells after 72 hours incubation (final concentration 0.5 mg/ml) and incubation continued for another 3 hours. MTT was solubilised by DMSO and absorbance at 570 nm was measured. Growth inhibition (GI) was estimated using the following equitation: GI=(mean A drug exposed wells−mean Ablank/mean Acontrol wells−mean Ablank)×100%. The GI20 value, the drug concentration causing 20% decrease in mitochondrial dehydrogenase activity, was calculated from the obtained dose response curves.

In data set [2] the test system is normal diploid fibroblasts BJ. In words: In vitro cytotoxic activity (metabolisation of Calcein AM). Format: cell-based, human. Conditions: BJ cells, 72 hours incubation, called GI50, read-out: Cell line tested/IC50 (μmol/L) BJ. An excerpt:
(§1) In vitro Cytotoxic Activity (Metabolisation of Calcein AM). Because toxic compounds negatively influence metabolic processes of cells, many standard cytotoxicity assays are based on measurement of metabolisation rate of various artificial substrates. Resulting product is then quantified, for example, by means of spectrometry. The assays can be easily modified for use in 96-well plates. For evaluation of cytotoxicity of the 6,8-disubstituted purines of this invention, a microtiter assay based on quantification of metabolisation of Calcein AM was used. The assay is widely used in drug screening programs and in chemosensitivity testing. In live cells, Calcein AM is enzymatically hydrolysed and accumulation of resulting calcein is manifested by green fluorescence.
(§2) The following human cell lines were used for routine screening of the compounds: normal diploid fibroblasts BJ, T-lymphoblastic leukemia cell line CEM, promyelocytic leukemia cell line HL-60, erytroid leukemia cell line K-562, breast carcinoma cell line MCF-7, osteosarcoma cell line HOS and melanoma cell line G-361. The cells were maintained in Nunc/Corning 80 cm^2 plastic tissue culture flasks and cultured in cell culture medium (DMEM with 5 g/l glucose, 2 mM glutamine, […] penicillin, 100 mmg/ml streptomycin, 10% fetal calf serum and sodium bicarbonate).
(§3) The cell suspensions were prepared and diluted according to the particular cell type and the expected target cell density (2.500-30.000 cells per well based on cell growth characteristics) and pipetted (80 μl) into 96-well plates. Inoculates were allowed a pre-incubation period of 24 hours at 37° C. and 5% CO2 for stabilization. Tested compound was added in total volume of […] of water at time zero. Usually, test compound was evaluated at six 3-fold dilutions. In routine testing, the highest concentration tested was 100 μM, but it could have been adjusted because of limited solubility of a compound. All drug concentrations were tested in triplicates.
(§4) Incubations of cells with the test compounds lasted for 72 hours at 37° C., in 5% CO2 atmosphere and 100% humidity. At the end of incubation period Calcein AM in PBS was added into final concentration of 1 μg/ml. After another 1 hour of incubation fluorescence (FD) was measured with the Labsystem FIA Reader Fluoroscan Ascent (UK). Growth inhibition (GI) was estimated using the following equitation: GI=(mean FDdrug exposed wells−mean FDblank)/(mean FDcontrol wells−mean FDblank)×100%. The GI50 value, the drug concentration causing 50% reduction of Calcein AM conversion, was calculated from the obtained dose response curves.

Data set [3] deals with melanoma cell line G-361. Described as above. Format: cell-based, human. The note with it: G-361 cells, 72 hours incubation, called GI50, read-out: Cell line tested/IC50 (μmol/L) G-361.
Description: as §1, §2, §3, §4

Data set [4] concerns breast carcinoma cell line MCF-7. Described as above. Conditions: MCF7 cells, 72 hours incubation, called GI50, read-out: Cell line tested/IC50 (μmol/L) MCF7. Format: cell-based, human.
Description: as §1, §2, §3, §4

The subject of data set [5] is osteosarcoma cell line HOS. The description is as above. Conditions: HOS cells, 72 hours incubation, called GI50, read-out: Cell line tested/IC50 (μmol/L) HOS. Format: cell-based, human.
Description: as §1, §2, §3, §4

Data set [6] deals with erytroid leukemia cell line K-562. The description is as above. The format is cell-based, human. Conditions: K-562 cells, 72 hours incubation, called GI50, read-out: Cell line tested/IC50 (μmol/L) K-562.
Description: as §1, §2, §3, §4

The subject of data set [7] is T-lymphoblastic leukemia cell line CEM. Described as above. Conditions: CEM cells, 72 hours incubation, called GI50, read-out: Cell line tested/IC50 (μmol/L) CEM. The format is cell-based, human.
Description: as §1, §2, §3, §4

A word on the melting point: it is the temperature, or range, at which the solid turns liquid. In turn, `CN(C)c1nc2ncnc(NCc3ccco3)c2[nH]1` [Compound 61, 8-Dimethylamino-6-furfurylaminopurine] came in with a melting point of 245 to 246 °C.

Consider `Nc1nc2ncnc(NCc3cccc(O)c3O)c2[nH]1` [Compound 102], for which the GI20 in data set [1] is over 100 µM. The IC50 in data set [2], in data set [3], in data set [4], in data set [5], in data set [6] and in data set [7] was over 50 µmol/L in each case.

The compound `Nc1nc2ncnc(NCc3ccc(O)c(O)c3)c2[nH]1` [Compound 103] registered a GI20 in data set [1] of over 100 µM. In addition, the IC50 in data set [2], in data set [3], in data set [4], in data set [5], in data set [6] and in data set [7] was over 50 µmol/L each time.

For the compound `COc1cccc(CNc2ncnc3nc(N)[nH]c23)c1O` [Compound 104], in data set [1], the GI20 was over 100 µM. Further, the IC50 in data set [2], in data set [3], in data set [4], in data set [5], in data set [6] and in data set [7] was over 50 µmol/L each time.

`COc1ccc(CNc2ncnc3nc(N)[nH]c23)cc1O` [Compound 105] returned a GI20 in data set [1] of over 100 µM. In addition, the IC50 in data set [2], in data set [3], in data set [4], in data set [5], in data set [6] and in data set [7] was over 50 µmol/L in each case.

Turning to `Nc1nc2ncnc(Nc3ccccc3O)c2[nH]1` [Compound 114], the GI20 in data set [1] is over 100 µM. Besides, the IC50 in data set [2], in data set [3], in data set [4], in data set [5], in data set [6] and in data set [7] was over 50 µmol/L each time.

Regarding `Nc1nc2ncnc(Nc3cccc(O)c3)c2[nH]1` [Compound 115], in data set [1], the GI20 is over 100 µM. The IC50 in data set [2], in data set [3], in data set [4], in data set [5], in data set [6] and in data set [7] was over 50 µmol/L in each case.

For the compound `COc1nc2ncnc(NCC=C(C)C)c2[nH]1` [Compound 123, 8-Methoxy-6-(3-methylbut-2-en-1-ylamino)purine], the melting point fell in the range of 205 to 210 °C.

As to `CSc1nc2ncnc(NCC=C(C)C)c2[nH]1` [Compound 149, 6-(3-Methylbut-2-en-1-ylamino)-8-methylsulphanylpurine], the melting point was 96 to 99 °C.

`N#Cc1nc2ncnc(NCc3ccccc3)c2[nH]1` [Compound 174, 6-Benzylamino-8-cyanopurine] registered a melting point of 210 to 213 °C.

Consider `O=C(O)c1nc2ncnc(NCc3ccccc3)c2[nH]1` [Compound 202, 6-Benzylaminopurine-8-carboxylic acid], for which the melting point was in the range of 230 to 232 °C.

Take `CC(=CCNc1ncnc2nc(NCCCN)[nH]c12)CO` [Compound 210]: in data set [1], the GI20 is over 100 µM. Besides, the IC50 in data set [2], in data set [3], in data set [4], in data set [5], in data set [6] and in data set [7] was over 50 µmol/L throughout.

As for `CC(C)=CCNc1ncnc2nc(NCCCN)[nH]c12` [Compound 211], in data set [1], the GI20 was over 100 µM. The IC50 in data set [2], in data set [3], in data set [4], in data set [5], in data set [6] and in data set [7] was over 50 µmol/L each time.

`OCCOc1nc2ncnc(NCc3ccco3)c2[nH]1` [Example 7 (18), 6-Furfurylamino-8-(2-hydroxyethyloxy)purine]: the melting point is 182 to 184 °C.

`CC(C)=CCNc1ncnc2nc(N(C)C)[nH]c12` [Example 7 (19), 8-Dimethylamino-6-(3-methylbut-2-en-1-ylamino)purine] had a melting point of 246 to 249 °C.
